In US20110166097A1, “TAXANE COMPOUNDS FOR TREATING EYE DISEASE” (Osiris Therapeutics, Inc., priority 2008, published 2011):

Assays:
[1] = test system: choroidal neovascularization lesions; experiment: Lesion study (flat mount evaluation, choroidal neovascularization); assay type: in vivo, rats; conditions: after 21 days
Procedure: In another study, flat mount evaluation of the eyes can be carried out at the end of the study because angiography may not provide a full evaluation of the effect of the drug. At the end of the study, the eyes are removed, histologically processed and all lesions can be seen (including those that can not be detected by angiography). Such an evaluation can be used as a better measure of the choroidal neovascularization model.
Dosages used are 1.5 μg/2 μL, 5.0 μg/2 μL, and 15 μg/2 μL. The treatments also include a vehicle and Kenacort Retard® (4% triamcinolone acetonide). After 21 days, the eyes are removed, histologically processed, and the lesion size scored in μm^3.

[2] = test system: viable circulating endothelial cell precursors (CEPS); experiment: Cobalamin-paclitaxel bioconjugate dose study: viable circulating endothelial cell precursors; assay type: in vivo; conditions: mice
Procedure: (§1) The effects on counts of viable circulating endothelial cell precursors and white blood cells are measured after 28 days. Corresponding amounts of the cobalamin-paclitaxel bioconjugate, viable circulating endothelial cell precursors (CEPS), and white blood cells are presented in the Table 1:

Water solubility = assay type: physicochemical; conditions: conjugated to cobalt atom of cobalamin
[3] = test system: bFGF-stimulated formation of new blood vessel in the Matrigel plug; experiment: Matrigel plug perfusion in vivo assay; conditions: mice, 2, 6 and 30 mg/kg (paclitaxel units), oral gavage
Procedure: A Matrigel® plug perfusion in vivo assay is performed to determine the anti-angiogenic efficacy of the cobalamin-paclitaxel bioconjugate (Cob-Pac) of Example 1. The assay uses Matrigel®, a gelatinous protein mixture secreted by mouse tumor cells (BD Biosciences, San Jose, Calif.), to duplicate tissue environments. Matrigel® is liquid at room temperature, but when injected into the animal, forms a solid plug. If a growth vessel stimulant such as basic fibroblast growth factor (bFGF) is mixed with the Matrigel®, the bFGF stimulates the formation of new blood vessel in the plug, which can be monitored in the animal via fluorescence techniques. In the current study, Matrigel® is injected either alone or with bFGF subcutaneously into mice.

[4] = test system: choroidal neovascularization by laser burns of the eye; experiment: Choroidal neovascularization model (fluorescein angiography leakage score); assay type: in vivo; conditions: rats
Procedure: Groups of 8 rats/dosage group or vehicle are neovascularized by laser burns on the eye. Afterwards, the eye is immediately treated with a cobalamin-paclitaxel bioconjugate prepared in accordance with Example 1 at a dose of 1.5 μg/2 μL, 5.0 μg/2 μL, and 15 μg/2 μL (indicated as B.C. in FIG. 1). The treatment regimen also includes a vehicle and Kenacort Retard® (4% triamcinolone acetonide), as a positive control. Each treatment is scored at 7, 14, and 21 days post-treatment by infusing the eye with fluorescein and scoring the leakage using angiography. A score of 0 indicates no leakage while a score of 3 indicates severe leakage.

white blood cells = experiment: Cobalamin-paclitaxel bioconjugate dose study: white blood cell count; assay type: in vivo; conditions: mice, about 2 mg/kg, 28 days
Procedure: as §1

CC(=O)O[C@H]1C(=O)[C@@]2(C)C([C@H](OC(=O)c3ccccc3)[C@]3(O)C[C@H](OC(=O)[C@H](OC(=O)C[NH+](C)CC[CH2][Co+][N]4/C5=C(/C)C6=N/C(=C\C7=NC(=C(/C)C8=NC(C(C)C4C(CC(N)=O)C5(C)CCC(=O)NCC(C)OP(=O)([O-])OC4C(CO)OC(n5cnc9cc(C)c(C)cc95)C4O)C(C)(CC(N)=O)C8CCC(N)=O)/C(C)(CC(N)=O)C7CCC(N)=O)C(C)(C)C6CCC(N)=O)[C@@H](NC(=O)c4ccccc4)c4ccccc4)C(C)=C1C3(C)C)[C@]1(OC(C)=O)COC1C[C@@H]2O.[Cl-] (stereo partly drawn) [cobalamin-paclitaxel bioconjugate, Cbl-(CH2)3N(CH3)CH2COO-2′-PTX]
Number of blood vessel lesions (FIG. 2) ([1]; rats, 1.5, 5.0 and 15 μg/2 μL to the eye): decrease in a concentration dependent manner | Inhibition of new blood vessel growth (lesion study) ([1]; rats, high and medium concentrations (15 and 5.0 μg/2 μL)): efficacious in inhibiting new blood vessel growth | Most effective dose (viable CEPS) ([2]; 28-day dose study, dose as paclitaxel): about 2 mg/kg | Anti-angiogenic effect on viable CEPS ([2]; at each dose (1.5-30 mg/kg), 28 days): marked decrease in viable CEPS | solubility (Water solubility): > 100 mg/mL | Effect on growth of new blood vessels in Matrigel plug [3]: inhibits the growth of new blood vessels in each instance shown | Anti-angiogenic result by angiography leakage score (FIG. 1) ([4]; after 7 days, intermediate and high doses (5.0 μg/2 μL and 15 μg/2 μL) to the eye): show anti-angiogenic results | Anti-angiogenic result by angiography leakage score (FIG. 1) ([4]; after 14 days, high dose (15 μg/2 μL) to the eye): still provides anti-angiogenic benefit | Toxicity by white blood cell count (white blood cells): no neutropenia
